This is an account of results in US10183011B2, “Anti-depression compounds” (Board of Regents of the University of Texas System, priority 2009, dated 2019).

“And” between values parts separate entries of the source, which are not always exact repeats. Equal values may be shown once. Read-outs that look alike come from different tables or passages of the source.

The subject of series [1] is newborn cells in the dentate gyrus. Briefly: Chronic social defeat stress (CSDS): DG cellular proliferation (BrdU) and apoptosis (AC3). In kind it is in vivo, mouse (Ghsr-null and wild-type). The source says: FIG. 40. Effects of P7C3 on DG cellular proliferation and apoptosis following CSDS. (a) Protocol schematic. (b-e) BrdU-immunoreactive and AC3-immunoreactive cell counts in the dorsal and ventral DG of CSDS-exposed and non-CSDS-exposed mice treated with P7C3 vs. vehicle. Group sizes indicated. (f-k) Representative photomicrograph images of double-immunolabeled (BrdU and AC3) ventral DG sections. (l-q) Magnified images of immunoreactive cells (AC3, leftward-facing arrow; BrdU, rightward-facing arrow). Scale bar in (k; 100 μm) pertains to (f-k), in (q; 25 μm) pertains to (l-q). *P<0.05, **P<0.01, ***P<0.001, as compared to respective non-CSDS-exposed, vehicle-treated control group.
It was next investigated whether protecting neural precursor cells from CSDS-associated apoptosis might help protect against the depressive-like phenotype. To test this idea, P7C3 was utilized, a neuroprotective aminopropyl carbazole that elevates hippocampal neurogenesis by blocking apoptosis without affecting the proliferation rate of hippocampal neural precursor cells in the dentate gyrus. A twice-daily schedule of intraperitoneal P7C3 injections (20 mg/kg/d in divided doses) was initiated two days prior to CSDS and continued throughout the 10 day procedure for both wild-type and Ghsr-null littermates. […]
CSDS was performed similar to methods used previously in the lab (J. C. Chuang et al., Ghrelin mediates stress-induced food-reward behavior in mice. J Clin Invest 121, 2684 (2011)). […] Ethovision 3.0 software (Noldus, Leesburg, Va.) measured the duration spent in the interaction zone or in the corners. […]
Immunohistochemistry and quantification were performed as described previously (J. C. Chuang et al., Ghrelin mediates stress-induced food-reward behavior in mice. J Clin Invest 121, 2684 (2011); J. E. Malberg et al., Chronic antidepressant treatment increases neurogenesis in adult rat hippocampus. J Neurosci 20, 9104 (2000); A. A. Pieper et al., Discovery of a proneurogenic, neuroprotective chemical. Cell 142, 39 (2010)). […]

Series [2] can be described thus: Pharmacokinetic analysis in plasma and whole brain tissue. The settings on record: for concentration at 5 h: brain, five hours after dosing, read-out: brain level. Type of series: in vivo, mouse. The source says: Pharmacokinetic analysis of Example 45 Compound in plasma and whole brain tissue was undertaken after single IV, IP and oral gavage administrations. […] These favorable pharmacological properties facilitated a dose response experiment wherein daily oral administration of Example 45 Compound to adult mice was monitored for both brain levels of the chemical and pro-neurogenic efficacy (FIG. 7).

In the case of `OC(CNc1ccccc1)Cn1c2ccc(Br)cc2c2cc(Br)ccc21` (stereo not drawn) [Example P7C3], the “AC3+ cells in the ventral DG after CSDS” value in series [1] (20 mg/kg/d i.p. in divided doses) is on record as “blocked by P7C3 administration”. For the same compound, in series [1] (20 mg/kg/d i.p. in divided doses, wild type and Ghsr-null mice), the “BrdU+ cells in the DG after CSDS” value was “preserved normal levels of neurogenesis throughout both dorsal and ventral regions of the DG”. The “BrdU or AC3 immunoreactivity in the DG” value in series [1] (non-stressed control animals) is “did not significantly augment BrdU or AC3 immunoreactivity”.

Take `OC(CNc1ccccc1)Cn1c2ccc(Br)cc2c2cc(Br)ccc21` (stereo not drawn) [Example 45 Compound]: the concentration at 5 h was 213 nM and 101 ng/g in series [2] (mouse, oral 1 mg/kg); 1.13 µM and 534 ng/g in series [2] (mouse, oral 2.5 mg/kg); 1.35 µM and 640 ng/g in series [2] (mouse, oral 5 mg/kg). In series [2] (mouse, plasma, after IP delivery, read-out: plasma terminal half life (converted)), the half-life was 6.7 h. Further, the blood-brain barrier crossing result in series [2] (single IV, IP and oral gavage administrations) is “readily able to cross the blood-brain barrier”. In series [2] (single oral gavage administration), the oral bioavailability result is listed as “orally bioavailable”.
